Data on 1 molecule can be found in US20130197030A1, “Substituted 1,3-Dioxanes and There Uses” (Evolva Sa, priority 2007, published 2013).

The assay addresses T1, Human Recombinant (E. coli) PPARgamma (Homo sapiens, UniProt P37231).
T1 construct: host or cells: E. coli
T1 sequence (P37231 1-505): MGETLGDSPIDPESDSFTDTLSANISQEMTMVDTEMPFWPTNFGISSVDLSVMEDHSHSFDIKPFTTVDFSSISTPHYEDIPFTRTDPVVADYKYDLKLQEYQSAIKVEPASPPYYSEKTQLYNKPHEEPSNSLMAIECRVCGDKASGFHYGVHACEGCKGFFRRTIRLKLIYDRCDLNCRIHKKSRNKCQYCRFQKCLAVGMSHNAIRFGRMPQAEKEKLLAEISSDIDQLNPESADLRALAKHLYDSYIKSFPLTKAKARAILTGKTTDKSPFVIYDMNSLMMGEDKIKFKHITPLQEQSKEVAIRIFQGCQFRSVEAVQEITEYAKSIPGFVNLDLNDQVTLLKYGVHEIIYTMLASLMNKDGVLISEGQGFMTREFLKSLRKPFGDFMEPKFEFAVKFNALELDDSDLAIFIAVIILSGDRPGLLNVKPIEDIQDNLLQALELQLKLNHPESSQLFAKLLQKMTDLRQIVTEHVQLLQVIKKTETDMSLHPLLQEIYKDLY
The assay can be described thus: PPAR gamma binding assay. Conditions: at 30 μM. On the procedure:
Incubation: 120 min. at 4° C.
The results are expressed as a percent of control specific binding ((measured specific binding/control specific binding)×100) obtained in the presence of the test compounds. The IC50 values (concentration causing a half-maximal inhibition of control specific binding) and Hill coefficients (nil) were determined by non-linear regression analysis of the competition curves generated with mean replicate values using Hill equation curve fitting (Y=D+[(A−D)/(1+(C/C50)nH)], where Y=specific binding, D=minimum specific binding, A=maximum specific binding, C=compound concentration, C50=IC50, and nH=slope factor). This analysis was performed using a software developed at Cerep (Hill software) and validated by comparison with data generated by the commercial software SigmaPlot 4.0 for Windows® (© 1997 by SPSS Inc.). The inhibition constants (Ki) were calculated using the Cheng Prusoff equation (Ki=IC50/(1+(L/KD)), where L=concentration of radioligand in the assay, and KD=affinity of the radioligand for the receptor).

Structures are written as SMILES.

For `O=C(O)CC/C=C\C[C@H]1CO[C@@H](c2ccccc2Cl)O[C@H]1c1ccccc1O` [Compound B, (Z)-6-((2R,4R,5S)-2-(2-chlorophenyl)-4-(2-hydroxyphenyl)-1,3-dioxan-5-yl)hex-4-enoic acid, reference compound], the PPARγ binding result was “no binding”.
